Measured values reported in patent EP1005445B1, “N-ALKANOYLPHENYLALANINE DERIVATIVES” (F. HOFFMANN-LA ROCHE AG, priority 1997, dated 1999).
Values joined by “and” are separate entries in the source; they are usually repeats but may differ in a detail not shown here. Equal entries are not always repeated.

What was measured:
[1] = molecular target: T1, VLA-4 (a4b1 integrin) (Homo sapiens, UniProt P05556+P13612); assay: VLA-4 / VCAM-1 Screening Assay (solid-phase, dual antibody ELISA); conditions: Ramos cell-derived VLA-4 binding to immobilized recombinant human VCAM-1, 1 mM MnCl2, 2 hr at 37 °C
T1 construct: followed by 10 µl of Ramos cell-derived VLA-4; endogenous in cells; host or cells: Ramos cells (VLA-4 preparation derived from the cells)
T1 sequence (P13612 34-1032): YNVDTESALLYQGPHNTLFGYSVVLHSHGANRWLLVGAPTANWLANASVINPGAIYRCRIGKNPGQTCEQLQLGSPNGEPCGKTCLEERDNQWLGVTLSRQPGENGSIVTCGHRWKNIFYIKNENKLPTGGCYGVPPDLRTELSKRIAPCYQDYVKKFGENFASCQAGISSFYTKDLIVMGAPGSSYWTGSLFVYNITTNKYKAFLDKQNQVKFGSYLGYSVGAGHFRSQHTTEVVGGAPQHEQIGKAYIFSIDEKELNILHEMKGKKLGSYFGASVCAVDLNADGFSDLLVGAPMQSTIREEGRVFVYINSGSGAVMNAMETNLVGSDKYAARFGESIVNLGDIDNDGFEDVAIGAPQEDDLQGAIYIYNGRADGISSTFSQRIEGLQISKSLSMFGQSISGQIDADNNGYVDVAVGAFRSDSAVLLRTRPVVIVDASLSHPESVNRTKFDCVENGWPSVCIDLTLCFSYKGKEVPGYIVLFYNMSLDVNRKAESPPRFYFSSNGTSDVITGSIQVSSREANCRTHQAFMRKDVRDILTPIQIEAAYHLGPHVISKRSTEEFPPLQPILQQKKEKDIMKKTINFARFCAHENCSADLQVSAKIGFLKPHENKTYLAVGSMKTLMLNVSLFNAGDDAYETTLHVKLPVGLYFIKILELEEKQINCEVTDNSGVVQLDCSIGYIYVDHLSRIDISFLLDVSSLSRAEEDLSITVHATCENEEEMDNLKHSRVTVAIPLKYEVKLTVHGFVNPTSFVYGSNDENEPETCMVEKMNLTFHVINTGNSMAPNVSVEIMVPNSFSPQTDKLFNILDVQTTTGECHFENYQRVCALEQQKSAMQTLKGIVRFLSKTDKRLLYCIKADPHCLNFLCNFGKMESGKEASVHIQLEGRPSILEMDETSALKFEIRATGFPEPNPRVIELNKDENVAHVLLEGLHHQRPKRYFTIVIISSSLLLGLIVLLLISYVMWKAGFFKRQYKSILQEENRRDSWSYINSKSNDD
T1 sequence (P05556 21-798): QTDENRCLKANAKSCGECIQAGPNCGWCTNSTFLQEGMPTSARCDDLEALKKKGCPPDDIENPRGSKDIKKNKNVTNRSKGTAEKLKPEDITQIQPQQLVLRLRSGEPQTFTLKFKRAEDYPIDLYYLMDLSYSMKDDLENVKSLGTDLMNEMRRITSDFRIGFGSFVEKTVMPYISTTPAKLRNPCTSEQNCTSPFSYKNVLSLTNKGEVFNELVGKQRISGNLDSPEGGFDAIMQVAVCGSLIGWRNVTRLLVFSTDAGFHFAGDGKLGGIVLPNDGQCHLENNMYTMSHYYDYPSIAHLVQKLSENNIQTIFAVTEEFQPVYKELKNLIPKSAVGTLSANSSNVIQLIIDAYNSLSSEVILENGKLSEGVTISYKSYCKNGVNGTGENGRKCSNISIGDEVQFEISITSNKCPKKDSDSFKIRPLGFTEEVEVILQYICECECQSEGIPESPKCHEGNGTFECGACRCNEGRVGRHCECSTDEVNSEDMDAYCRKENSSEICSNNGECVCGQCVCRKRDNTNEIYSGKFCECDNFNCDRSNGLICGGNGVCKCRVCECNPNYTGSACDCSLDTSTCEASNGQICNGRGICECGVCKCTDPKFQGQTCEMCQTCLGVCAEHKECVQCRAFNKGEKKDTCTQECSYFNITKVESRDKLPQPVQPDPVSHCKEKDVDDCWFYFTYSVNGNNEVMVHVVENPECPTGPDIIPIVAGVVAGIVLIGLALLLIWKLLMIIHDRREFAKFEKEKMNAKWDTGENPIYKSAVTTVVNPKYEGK
Protocol: VLA-4 / VCAM-1 Screening Assay
VLA-4 antagonist activity, defined as ability to compete for binding to immobilized VCAM-1, was quantitated using a solid-phase, dual antibody ELISA. VLA-4 (a4b1 integrin) bound to VCAM-1 is detected by a complex of anti-integrin b1 antibody: HRP-conjugated anti-mouse IgG: chromogenic substrate (K-Blue). Initially, this entailed coating 96 well plates (Nunc Maxisorp) with recombinant human VCAM-1 (0.4 µg in 100 µl PBS), sealing each plate and then allowing the plates to stand at 4°C for Å18 hr. […] On the day of assay, all plates are washed twice with VCAM Assay Buffer (200 µl/well of 50 mM Tris-HCl, 100 mM NaCl, 1 mM MnCl2, 0.05% Tween 20; pH 7.4). Test compounds are dissolved in 100% DMSO and then diluted 1:20 in VCAM Assay Buffer supplemented with 1mg/mL BSA (i.e., final DMSO = 5%). […] 100 µl per well of each dilution is added to the VCAM-coated plates, followed by 10 µl of Ramos cell-derived VLA-4. These plates are sequentially mixed on a platform shaker for 1 min, incubated for 2 hr at 37 °C, and then washed four times with 200 µl/well VCAM Assay Buffer. 100 µl of mouse anti-human integrin b1 antibody is added to each well (0.6 µg/mL in VCAM Assay Buffer + 1mg/mL BSA) and allowed to incubate for 1 hr at 37°C. At the conclusion of this incubation period, all plates are washed four times with VCAM Assay Buffer (200 µl/well). A corresponding second antibody, HRP-conjugated goat anti-mouse IgG (100 µl per well @ 1:800 dilution in VCAM Assay Buffer + 1mg/mL BSA), is then added to each well, followed by a 1 hr incubation at room temperature and concluded by three washes (200µl/well) with VCAM Assay Buffer. Color development is initiated by addition of 100 µl K-Blue per well (15 min incubation, room temp) and terminated by addition of 100 µl Red Stop Buffer per well. […] Results are calculated as % inhibition of total binding (i.e., VLA-4 + VCAM-1 in the absence of test compound).

[2] = molecular target: T1, VLA-4 (a4b1 integrin); assay: Ramos (VLA-4) / VCAM-1 Cell-Based Screening Assay (cell adhesion)
Description: Ramos (VLA-4) / VCAM-1 Cell-Based Screening Assay Protocol
Calcein-AM was purchased from Molecular Probes Inc.
VLA-4 (a4b1 integrin) antagonist activity, defined as ability to compete with cell-surface VLA-4 for binding to immobilized VCAM-1, was quantitated using a Ramos-VCAM-1 cell adhesion assay. Ramos cells bearing cell-surface VLA-4, were labeled with a fluorescent dye (Calcein-AM) and allowed to bind VCAM-1 in the presence or absence of test compounds.
Initially, this entailed coating 96 well plates (Nunc Maxisorp) with recombinant human VCAM-1 (100 ng in 100 µl PBS), sealing each plate and allowing the plates to stand at 4°C for Å18 hr. The VCAM-coated plates were subsequently washed twice with 0.05% Tween-20 in PBS, and then blocked for 1hr (room temperature) with 200 µl of Blocking Buffer (1% BSA/0.02% thimerosal) to reduce non-specific binding. Following the incubation with Blocking Buffer, plates were inverted, blotted and the remaining buffer aspirated. Each plate was then washed with 300 µl PBS, inverted and the remaining PBS aspirated.
Test compounds were dissolved in 100% DMSO and then diluted 1:25 in VCAM Cell Adhesion Assay Buffer (4 mM CaCl2, 4 mM MgCl2 in 50 mM TRIS-HCl, pH 7.5) (final DMSO = 4%). […] 100 µl/well of each dilution was added to the VCAM-coated plates, followed by 100 µl of Ramos cells (200,000 cells/well in 1% BSA/PBS). […] Plates were inverted to remove non-adherent cells, blotted and 300 µl/well PBS added. Plates were again inverted, blotted and the remaining buffer gently aspirated. 100 µl Lysis Buffer (0.1% SDS in 50 mM TRIS-HCl, pH 8.5) was added to each well and agitated for 2 min on a rotary shaking platform.

[3] = Calcein-AM labeled Ramos cells adhering to immobilized recombinant human VCAM-1, 45 min at room temperature, read-out: Ramos IC50

Row | Molecule | IC50 ([1]; read-out: ELISA IC50) | IC50 [2, 3] [nM] | also measured
1 | CNc1ccccc1C(=O)N[C@@H](Cc1ccc(NC(=O)c2c(Cl)cccc2Cl)cc1)C(=O)O [Example 27] | 1.9 nM |  | 
2 | Cc1cccc(Cl)c1C(=O)N[C@@H](Cc1ccc(NC(=O)c2c(F)c(F)c(F)c(F)c2F)cc1)C(=O)O [Example 115, N-[1-(2-Chloro-6-methylphenyl)carbonyl]-4-[[(2,3,4,5,6-pentafluorophenyl)carbonyl]amino]-L-phenylalanine] | 4.5 nM | 678 | 
3 | Cc1cc(C(F)(F)F)c(C(=O)N[C@@H](Cc2ccc(NC(=O)c3c(Cl)cccc3Cl)cc2)C(=O)O)c(C)n1 [Example 156] |  | 114 | 
4 | Cc1cccc(Cl)c1C(=O)Nc1ccc(C[C@H](NC(=O)c2c(Cl)cccc2Cl)C(=O)O)cc1 [Example 169, N-[(2,6-Dichlorophenyl)carbonyl]-4-[[(2-chloro-6-methylphenyl)carbonyl]amino]-L-phenylalanine] |  | 30 | 
5 | Nc1ccc(C(=O)N[C@@H](Cc2ccc(NC(=O)c3c(Cl)cccc3Cl)cc2)C(=O)O)c(Cl)c1 [Example 124, N-[(4-amino-2-chlorophenyl)carbonyl]-4-[[(2,6-dichlorophenyl)carbonyl]amino]-L-phenylalanine] | 0.63 nM | 985 | 
6 | CS(=O)(=O)c1ccc(C(=O)N[C@@H](Cc2ccc(NC(=O)c3c(Cl)cccc3Cl)cc2)C(=O)O)c(Cl)c1 [Example 94] | 0.25 nM | 9.5 | 
7 | O=C(N[C@@H](Cc1ccc(NC(=O)c2c(Cl)cccc2Cl)cc1)C(=O)O)c1ccc(O)cc1Cl [Example 95] | 0.46 nM | 33 | 
8 | COc1ccc(C(=O)N[C@@H](Cc2ccc(NC(=O)c3c(Cl)cccc3Cl)cc2)C(=O)O)c(Cl)c1 [Example 19] |  | 351 | 
9 | O=C(N[C@@H](Cc1ccc(NC(=O)c2c(Cl)cccc2Cl)cc1)C(=O)O)c1cccc(Cl)c1Cl [Example 20] | 2.2 nM | 1630 | 
10 | C[S+]([O-])c1ccccc1C(=O)N[C@@H](Cc1ccc(NC(=O)c2c(Cl)cccc2Cl)cc1)C(=O)O (single isomer, unassigned) [Example 30, 4-[[(2,6-dichlorophenyl)carbonyl]amino]-N-[[2-(methylsulfinyl)phenyl]carbonyl]-L-phenylalanine] | 2 nM and 1.6 nM |  | 
11 | Cc1cccc(C(C)C)c1C(=O)N[C@@H](Cc1ccc(NC(=O)c2c(Cl)cccc2Cl)cc1)C(=O)O [Example 90] | 1.2 nM | 23 | 
12 | 4-[(2S,4R)-3-Acetyl-2-phenyl-4-(3-pyridinylmethyl)-5-oxo-1-imidazolinyl]-N-[(2-chloro-6-methylphenyl)carbonyl]-L-phenylalanine and 4-[(2R,4R)-3-acetyl-2-phenyl-4-(3-pyridinylmethyl)-5-oxo-1-imidazolinyl]-N-[(2-chloro-6-methylphenyl)carbonyl]-L-phenylalanine [Example 171] |  | 13.5 | 
13 | COC(=O)[C@H](Cc1ccc(N2C(=O)[C@@H](C(C)C)N(C)C2=O)cc1)NC(=O)c1c(C)cccc1Cl [Example 96, N-(2-Chloro-6-methylbenzoyl)-[(R)-2,5-dioxo-3-methyl-4-(1-methylethyl)-1-imidazolininyl]-L-phenylalanine methyl ester] | 0.47 nM |  | 
14 | O=C(Nc1ccc(C[C@H](NC(=O)c2cccc3ccccc23)C(=O)O)cc1)c1c(Cl)cccc1Cl [Example 15] |  | 2600 | 
15 | CC(=O)N1[C@H](CC(C)C)C(=O)N(c2ccc(C[C@H](NC(=O)c3c(C)cccc3Cl)C(=O)O)cc2)[C@@H]1C(C)(C)C [Example 102] | 41 nM |  | 
16 | CC(=O)N1C(Cc2ccccc2)C(=O)N(c2ccc(C[C@H](NC(=O)c3c(C)cccc3Cl)C(=O)O)cc2)C1c1ccccc1 (single isomer, unassigned) [Example 170] |  | 33.5 | 
17 | Cc1cccc(Cl)c1C(=O)N[C@@H](Cc1ccc(NC(=O)c2c(F)cccc2F)cc1)C(=O)O [Example 114, N-[1-(2-Chloro-6-methylphenyl)carbonyl]-4-[[(2,6-difluorophenyl)carbonyl]amino]-L-phenylalanine] | 1.14 nM |  | 
18 | O=C(Nc1ccc(C[C@H](NC(=O)c2c(F)cccc2C(F)(F)F)C(=O)O)cc1)c1c(Cl)cccc1Cl [Example 16] |  | 85 | 
19 | COc1ccc(Br)c(C(=O)N[C@@H](Cc2ccc(NC(=O)c3c(Cl)cccc3Cl)cc2)C(=O)O)c1 [Example 24] | 0.25 nM |  | 
20 | COc1ccccc1C(=O)N[C@@H](Cc1ccc(NC(=O)c2c(Cl)cccc2Cl)cc1)C(=O)O [Example 26] | 8.6 nM |  | 
21 | CS(=O)(=O)c1ccccc1C(=O)N[C@@H](Cc1ccc(NC(=O)c2c(Cl)cccc2Cl)cc1)C(=O)O [Example 28] | 3.3 nM |  | 
22 | Cc1cc(C(F)(F)F)c(C(=O)Nc2ccc(C[C@H](NC(=O)c3c(C)cccc3Cl)C(=O)O)cc2)c(C)n1 [Example 150] |  |  | IC50 [2]: 47 nM
23 | O=C(N[C@@H](Cc1ccc(NC(=O)c2c(Cl)cccc2Cl)cc1)C(=O)O)c1ccc(Br)cc1Cl [Example 22] | 1.6 nM | 1320 | 
24 | CC(C)c1cccc(C(C)C)c1C(=O)N[C@@H](Cc1ccc(NC(=O)c2c(Cl)cccc2Cl)cc1)C(=O)O [Example 18] | 11 nM |  | 
25 | Cc1cccc(Cl)c1C(=O)N[C@@H](Cc1ccc(N2C(=O)c3ccc(C#N)cc3C2=O)cc1)C(=O)O [Example 125] |  |  | IC50 ([1]; read-out: ELISA IC50 nM): 1.7 nM
26 | Cc1cccc(Cl)c1C(=O)N[C@@H](Cc1ccc(NC(=O)c2c(C)ccnc2C)cc1)C(=O)O [Example 107] |  |  | IC50 [2]: 20 nM; IC50 ([1]; ELISA IC50 nM): 0.79 nM
27 | Cc1cccc(Cl)c1C(=O)N[C@@H](Cc1ccc(NC(=O)c2c(Cl)cccc2Cl)cc1)C(=O)O [Example 13] | 0.33 nM | 15 | 
28 | Cc1cccc(C(=O)N[C@@H](Cc2ccc(NC(=O)c3c(Cl)cccc3Cl)cc2)C(=O)O)c1Cl [Example 21] | 1.4 nM | 1270 | 
